The target of one data set is T1, human GLP-1 receptor (Homo sapiens, UniProt P43220).
T1 construct: expressed in transfected cells; host or cells: BHK cells (parent BHKTS13), clone FCW467-12A/KZ10-1, with CRE luciferase
Kind of data set: GLP-1 receptor potency, CRE luciferase reporter gene assay in BHK cells. The data set is classed as cell-based. Conditions: BHK cells expressing human GLP-1 receptor, read-out: EC50 GLP-1R. The procedure, abridged: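 Potency as cAMP-driven firefly luciferase signal after 3 h, 37° C exposure to 10-fold dilutions (final 1×10EE-13–1×10EE-6 M). Stable hGLP-1R/CRE-luc BHK clone, 5×10EE3 cells/well, medium containing 2% ovalbumin and 0.2% Pluronic F-68; EC50 (pM) from variable-slope non-linear regression.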

A short description of data set [1]: Thioflavin T (ThT) fibrillation assay for physical stability. Format: physicochemical. To be noted: 250 μM in 10 mM HEPES buffer, pH 7.5, 37° C., shaking 960 rpm. The procedure, abridged: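 Fibrillation was followed by ThT (1 μM) fluorescence every 20 min, 444/485 nm, for 250 μM peptide in 10 mM HEPES pH 7.5 shaken at 960 rpm, 37° C. Lag time (t0−2τ) and apparent rate constant (1/τ) come from a sigmoidal fit. Recovery is % of initial concentration remaining soluble after centrifugation and filtration (RP-HPLC).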

The EC50 is the concentration that produces a half-maximal response.

Structures are written as SMILES. Numbered stars: 1 amine (or outer) side, 2 acyl side, 3 side chain; on linkers, the order of the positions; unused ones are H or OH. Square brackets hold non-standard residues; d marks the D form. Side chains are listed from the residue outwards. Peptide text beside a SMILES is read from it. * marks the point of attachment. C18 diacid = O=C(O)CCCCCCCCCCCCCCCCC(=O)*; γGlu = O=C(O)[C@H](CCC(=O)[*:2])N[*:1]; AEEA = NCCOCCOCC(=O)O; Ac3c = NC1(C(=O)O)CC1; Aib = CC(C)(N)C(=O)O

T1 sequence (P43220 24-463): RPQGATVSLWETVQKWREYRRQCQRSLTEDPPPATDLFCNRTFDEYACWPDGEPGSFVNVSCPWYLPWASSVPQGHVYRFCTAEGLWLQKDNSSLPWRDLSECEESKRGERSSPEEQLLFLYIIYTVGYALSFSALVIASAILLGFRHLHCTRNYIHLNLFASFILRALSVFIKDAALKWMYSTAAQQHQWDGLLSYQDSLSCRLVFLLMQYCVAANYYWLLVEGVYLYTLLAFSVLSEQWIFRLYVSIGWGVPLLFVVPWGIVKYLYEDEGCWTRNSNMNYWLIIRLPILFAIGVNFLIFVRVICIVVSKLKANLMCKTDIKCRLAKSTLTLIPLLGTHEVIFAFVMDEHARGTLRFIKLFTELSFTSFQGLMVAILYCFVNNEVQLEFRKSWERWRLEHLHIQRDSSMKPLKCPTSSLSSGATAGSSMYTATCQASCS

Take `CC(C)C[C@H](NC(=O)[C@H](Cc1ccc(O)cc1)NC(=O)[C@H](CCCCN)NC(=O)[C@H](CO)NC(=O)[C@H](CC(C)C)NC(=O)[C@H](CC(=O)O)NC(=O)[C@H](CO)NC(=O)[C@@H](NC(=O)[C@H](Cc1ccccc1)NC(=O)[C@@H](NC(=O)CNC(=O)[C@H](CCC(N)=O)NC(=O)C1(NC(=O)[C@@H](N)Cc2c[nH]cn2)CC1)[C@@H](C)O)[C@@H](C)O)C(=O)N[C@@H](CCC(=O)O)C(=O)N[C@@H](CO)C(=O)N[C@@H](CCCNC(=N)N)C(=O)N[C@@H](CCCNC(=N)N)C(=O)N[C@@H](C)C(=O)N[C@@H](CCCNC(=N)N)C(=O)N[C@@H](CCC(=O)O)C(=O)N[C@@H](Cc1ccccc1)C(=O)N[C@H](C(=O)N[C@@H](CCC(N)=O)C(=O)N[C@@H](Cc1c[nH]c2ccccc12)C(=O)N[C@@H](CC(C)C)C(=O)N[C@@H](CC(C)C)C(=O)N[C@@H](CCCCNC(=O)CC[C@H](NC(=O)CC[C@H](NC(=O)COCCOCCNC(=O)COCCOCCNC(=O)CC[C@H](NC(=O)CCCCCCCCCCCCCCCCC(=O)O)C(=O)O)C(=O)O)C(=O)O)C(=O)N[C@H](C(N)=O)[C@@H](C)O)C(C)C` [Example 50, N^ε28-[(4S)-4-carboxy-4-[[(4S)-4-carboxy-4-[[2-[2-[2-[[2-[2-[2-[[(4S)-4-carboxy-4-(17-carboxyheptadecanoylamino)butanoyl]amino]ethoxy]ethoxy]acetyl]amino]ethoxy]ethoxy]acetyl]amino]butanoyl]amino]butanoyl]-[Acpr2,Leu10,Glu15,Arg20,Glu21,Leu27,Lys28]-Glucagon amide] (H-H[Ac3c]QGTFTSDLSKYLESRRAREFVQWLLK([γGlu-γGlu-AEEA-AEEA-γGlu-C18 diacid])T-NH2; N-terminus assumed): at human GLP-1 receptor, the concentration giving a half-maximal response (EC50) is 0.011 nM. In data set [1], the THT assay Lag time (Ex. 76) worked out at 28 h.

On to `CC(C)C[C@H](NC(=O)[C@H](CC(=O)O)NC(=O)[C@H](CC(C)C)NC(=O)[C@H](Cc1ccc(O)cc1)NC(=O)[C@H](CCCCN)NC(=O)[C@H](CO)NC(=O)[C@H](CC(C)C)NC(=O)[C@H](CC(=O)O)NC(=O)[C@H](CO)NC(=O)[C@@H](NC(=O)[C@H](Cc1ccccc1)NC(=O)[C@@H](NC(=O)CNC(=O)[C@H](CCC(N)=O)NC(=O)C(C)(C)NC(=O)[C@@H](N)Cc1c[nH]cn1)[C@@H](C)O)[C@@H](C)O)C(=O)N[C@@H](CCCNC(=N)N)C(=O)N[C@@H](CCCNC(=N)N)C(=O)N[C@@H](C)C(=O)N[C@@H](CCC(N)=O)C(=O)N[C@@H](CC(=O)O)C(=O)N[C@@H](Cc1ccccc1)C(=O)N[C@H](C(=O)N[C@@H](CCC(N)=O)C(=O)N[C@@H](Cc1c[nH]c2ccccc12)C(=O)N[C@@H](CC(C)C)C(=O)N[C@@H](CC(C)C)C(=O)N[C@@H](CCCCNC(=O)CC[C@H](NC(=O)CC[C@H](NC(=O)[C@H](CO)NC(=O)[C@H](CCC(=O)O)NC(=O)[C@H](CO)NC(=O)CC[C@H](NC(=O)CC[C@H](NC(=O)CCCCCCCCCCCCCCCCC(=O)O)C(=O)O)C(=O)O)C(=O)O)C(=O)O)C(=O)N[C@H](C(N)=O)[C@@H](C)O)C(C)C` [Example 53, N^ε28-[(4S)-4-carboxy-4-[[(4S)-4-carboxy-4-[[(2S)-2-[[(2S)-4-carboxy-2-[[(2S)-2-[[(4S)-4-carboxy-4-[[(4S)-4-carboxy-4-(17-carboxyheptadecanoylamino)butanoyl]amino]butanoyl]amino]-3-hydroxypropanoyl]amino]butanoyl]amino]-3-hydroxypropanoyl]amino]butanoyl]amino]butanoyl]-[Aib2,Leu10,Leu16,Leu27,Lys28]-Glucagon amide] (H-H[Aib]QGTFTSDLSKYLDLRRAQDFVQWLLK([γGlu-γGlu-Ser-Glu-Ser-γGlu-γGlu-C18 diacid])T-NH2; N-terminus assumed), for which, on human GLP-1 receptor, the EC50 turned out to be 0.011 nM. The compound also displayed a THT assay Lag time (Ex. 76) in data set [1] of 45 h.

The record behind these values is patent US9474790B2, “Stable, protracted GLP-1/glucagon receptor co-agonists for medical use” (Novo Nordisk A/S, priority 2013, dated 2016).
